What was measured:
[1] = known value; cited from earlier work
[2] = Keppra levels in dried spot saliva samples over time after taking the drug, LC/MS; assay type: in vivo; details: two separate days, FIG. 14
Procedure: FIGS. 9 to 14 further illustrate the detection of Keppra in saliva. Levetiracetam (Trade Name: Keppra), is a medication used to treat epilepsy. In the illustrative example, the saliva specimens are collected on 2 separate days. On each day, subject is asked to collect blood/saliva samples before taking Keppra (time=0 hour), and after taking the drug (time=1, 2, 4, 8 hours). Saliva samples are collected in both liquid and dried spot forms. Blood samples are collected in dried spot form and are stored at room temperature before transportation for analytical laboratory analysis using LC/MS.
FIG. 13 is a graphical representation of Keppra levels using dried saliva comparatively measured. Graphical representation 1301 illustrates the comparison of dried saliva spot samples over two separate days.
FIG. 14 is a graphical representation of Keppra levels using dried saliva comparatively measured. The half-life of Keppra is known to be 5-8 hours. […] Consequently, dried spot saliva samples reliably reflect clearance of Keppra from the body according to the claimed invention.

[3] = LC/MS, all subjects, FIG. 15
Procedure: In a third illustrative example, the detection of a HIV drug in saliva is conducted according to the claimed invention. […] Sample analysis hardware includes chromatography and mass spectrometry functionality and can additionally include genetic sequencing functionality.

| time after which Keppra level depleted by half [2] [h] | Compound | half-life [1] [h] | detection of drug fragment ion in saliva [3] |
| --- | --- | --- | --- |
| 8 | CC[C@@H](C(N)=O)N1CCCC1=O [Keppra, Levetiracetam] | 5 to 8 | – |
| – | Nc1nc(=O)n([C@@H]2CS[C@H](CO)O2)cc1F [FTC] | – | detection of the FTC fragment ion |

Source: patent publication US10732169B2, “Personalized healthcare P4 drug monitoring system and method” (eNano Health Limited, priority 2016, dated 2020)
